# Calls of active or inactive are those of the source. The rule behind the calls is not given here.
# How the values were obtained:
# [1] = Metabolic stability in rat liver microsomes assessed as half life at 3 uM incubated upto 90 mins in presence of NADPH by LC-MS/MS analysis; format: ADME, Microsome
# [2] = Metabolic stability in mouse liver microsomes assessed as half life at 3 uM incubated upto 90 mins in presence of NADPH by LC-MS/MS analysis; format: ADME, Microsome
# [3] = Metabolic stability in rat liver microsomes assessed as intrinsic clearance at 3 uM incubated upto 90 mins in presence of NADPH by LC-MS/MS analysis; format: ADME, Microsome; settings: read-out: CLH
# [4] = 1-octanol/water partition coefficient, logP of the compound at 2 mg by UPLC analysis; format: physicochemical
# [5] = Acute toxicity in BALB/c mouse assessed as death at 600 mg/kg,po and measured for 14 days; format: organism-based; settings: in vivo, 336 h, time 14 day
# [6] = Acute toxicity in BALB/c mouse assessed as changes in platelet count in blood at 600 mg/kg,po and measured after 14 days by hematology test; format: organism-based; settings: in vivo, 336 h, time 14 day
# [7] = Acute toxicity in BALB/c mouse assessed as changes in hemoglobin level in blood at 600 mg/kg,po and measured after 14 days by hematology test; format: organism-based; settings: in vivo, 336 h, time 14 day
# [8] = Acute toxicity in BALB/c mouse assessed as changes in WBC level in blood at 600 mg/kg,po and measured after 14 days by hematology test; format: organism-based; settings: in vivo, 336 h, time 14 day
# [9] = Acute toxicity in BALB/c mouse assessed as changes in lymph level in blood at 600 mg/kg,po and measured after 14 days by hematology test; format: organism-based; settings: in vivo, 336 h, time 14 day
# [10] = Acute toxicity in BALB/c mouse assessed as changes in neutrophil level in blood at 600 mg/kg,po and measured after 14 days by hematology test; format: organism-based; settings: in vivo, 336 h, time 14 day
# [11] = Acute toxicity in BALB/c mouse assessed as changes in ALP level in serum at 600 mg/kg,po and measured after 14 days by Biochemistry analysis; format: organism-based; settings: in vivo, 336 h, time 14 day
# [12] = Acute toxicity in BALB/c mouse assessed as changes in UA level in serum at 600 mg/kg,po and measured after 14 days by Biochemistry analysis; format: organism-based; settings: in vivo, 336 h, time 14 day
# [13] = Acute toxicity in BALB/c mouse assessed as changes in CREA level in serum at 600 mg/kg,po and measured after 14 days by Biochemistry analysis; format: organism-based; settings: in vivo, 336 h, time 14 day
# [14] = Acute toxicity in BALB/c mouse assessed as changes in urea level in serum at 600 mg/kg,po and measured after 14 days by Biochemistry analysis; format: organism-based; settings: in vivo, 336 h, time 14 day
# [15] = Acute toxicity in BALB/c mouse assessed as tissue damage in lung at 600 mg/kg,po and measured after 14 days by hematoxylin and eosin staining based microscopy; format: organism-based; settings: in vivo, 336 h, time 14 day
# [16] = Acute toxicity in BALB/c mouse assessed as tissue damage in kidney at 600 mg/kg,po and measured after 14 days by hematoxylin and eosin staining based microscopy; format: organism-based; settings: in vivo, 336 h, time 14 day
# [17] = Acute toxicity in po dosed BALB/c mouse assessed as maximum tolerate dose; format: organism-based; settings: in vivo
# [18] = tested on: Mus musculus; test: Anti-inflammatory activity against DSS-induced acute ulcerative colitis in C57BL/6 mouse model assessed as decrease in DAI score at 40 mg/kg, po QD for 6 days; format: functional, organism-based; settings: time 6.0 day
# [19] = tested on: Mus musculus; test: Anti-inflammatory activity against DSS-induced acute ulcerative colitis in C57BL/6 mouse model assessed as decrease in colon tissue damage score at 40 mg/kg, po QD for 6 days relative to DSS group; format: functional; parameters: scale not given: the % may be the effect or the level left; settings: time 6 day
# [20] = tested on: Mus musculus; test: Anti-inflammatory activity against DSS-induced acute ulcerative colitis in C57BL/6 mouse model assessed as decrease in IL-17 mRNA expression level in colon at 40 mg/kg, po QD for 6 days by RT-PCR analysis; format: functional, organism-based; settings: time 6.0 day
# [21] = tested on: Mus musculus; test: Anti-inflammatory activity against DSS-induced acute ulcerative colitis in C57BL/6 mouse model assessed as decrease in IL-1beta mRNA expression level in colon at 40 mg/kg, po QD for 6 days by RT-PCR analysis; format: functional, organism-based; settings: time 6.0 day
# [22] = tested on: Mus musculus; test: Anti-inflammatory activity against DSS-induced acute ulcerative colitis in C57BL/6 mouse model assessed as decrease in IL-17 production in colon at 40 mg/kg, po QD for 6 days by ELISA; format: functional; parameters: scale not given: the % may be the effect or the level left; settings: time 6 day
# [23] = tested on: Mus musculus; test: Anti-inflammatory activity against DSS-induced acute ulcerative colitis in C57BL/6 mouse model assessed as decrease in IL-1beta production in colon at 40 mg/kg, po QD for 6 days by ELISA; format: functional; parameters: scale not given: the % may be the effect or the level left; settings: time 6 day
# [24] = Half life in Sprague-Dawley rat at 5 mg/kg, iv and measured upto 48 hrs by LC-MS/MS analysis; format: ADME, organism-based; settings: in vivo
# [25] = Apparent volume of distribution during terminal phase in Sprague-Dawley rat at 5 mg/kg, iv and measured upto 48 hrs by LC-MS/MS analysis; format: ADME, organism-based; settings: in vivo
# [26] = Clearance in Sprague-Dawley rat at 15 mg/kg, po and measured upto 48 hrs by LC-MS/MS analysis; format: ADME, organism-based; settings: in vivo
# [27] = Cmax in Sprague-Dawley rat at 15 mg/kg, po and measured upto 48 hrs by LC-MS/MS analysis; format: ADME, organism-based; parameters: dose 15 mg/kg, time < 48 hrs, route po; settings: in vivo
# [28] = Oral bioavailability in Sprague-Dawley rat at 15 mg/kg and measured upto 48 hrs by LC-MS/MS analysis; format: ADME, organism-based; settings: in vivo
# [29] = tested on: Mus musculus; test: Anti-inflammatory activity against DSS-induced acute ulcerative colitis in C57BL/6 mouse model assessed as decrease in body weight loss at 20 mg/kg, po QD for 6 days (Rvb= -13.4%); format: functional; parameters: scale not given: the % may be the effect or the level left; settings: time 6 day
# [30] = tested on: Mus musculus; test: Anti-inflammatory activity against DSS-induced acute ulcerative colitis in C57BL/6 mouse model assessed as decrease in body weight loss at 80 mg/kg, po QD for 6 days (Rvb= -13.4%); format: functional; parameters: scale not given: the % may be the effect or the level left; settings: time 6 day
# [31] = tested on: Mus musculus; test: Anti-inflammatory activity against DSS-induced acute ulcerative colitis in C57BL/6 mouse model assessed as increase in colon length at 40 mg/kg, po QD for 6 days (Rvb= 5.3cm); format: functional; settings: time 6 day
# [32] = tested on: Mus musculus; test: Anti-inflammatory activity against DSS-induced acute ulcerative colitis in C57BL/6 mouse model assessed as decrease in IL-6 mRNA expression level in colon at 20 to 80 mg/kg, po QD for 6 days by RT-qPCR analysis; format: functional, organism-based; settings: dose 20-80 mg/kg, time 6.0 day
# [33] = tested on: Mus musculus; test: Anti-inflammatory activity against DSS-induced acute ulcerative colitis in C57BL/6 mouse model assessed as decrease in IL-17 mRNA expression level in colon at 20 to 80 mg/kg, po QD for 6 days by RT-qPCR analysis; format: functional, organism-based; settings: dose 20-80 mg/kg, time 6.0 day
# [34] = tested on: Mus musculus; test: Anti-inflammatory activity against DSS-induced acute ulcerative colitis in C57BL/6 mouse model assessed as decrease in IL-1beta mRNA expression level in colon at 20 to 80 mg/kg, po QD for 6 days by RT-qPCR analysis; format: functional, organism-based; settings: dose 20-80 mg/kg, time 6.0 day
# [35] = tested on: Mus musculus; test: Anti-inflammatory activity against DSS-induced acute ulcerative colitis in C57BL/6 mouse model assessed as decrease in IL-6 protein level in colon at 20 to 80 mg/kg, po QD for 6 days by ELISA; format: functional, organism-based; settings: dose 20-80 mg/kg, time 6.0 day
# [36] = tested on: Mus musculus; test: Anti-inflammatory activity against DSS-induced acute ulcerative colitis in C57BL/6 mouse model assessed as decrease in IL-17 protein level in colon at 20 to 80 mg/kg, po QD for 6 days by ELISA; format: functional, organism-based; settings: dose 20-80 mg/kg, time 6.0 day
smiles,measurement,setting,value
Nc1nc(-c2cn(Cc3c(F)cccc3Cl)c3ncccc23)ncc1C1CC1,half-life at 3 µM,[1],7.8 min
same,half-life at 3 µM,[2],9.4 min
same,CLint scaled at 3 µM,[3],319 mL/min/kg
same,logP,[4],5.3
same,Activity,[5],Non-Toxic
same,Activity,[6],Non-Toxic
same,Activity,[7],Non-Toxic
same,Activity,[8],Non-Toxic
same,Activity,[9],Non-Toxic
same,Activity,[10],Non-Toxic
same,Activity,[11],Non-Toxic
same,Activity,[12],Non-Toxic
same,Activity,[13],Non-Toxic
same,Activity,[14],Non-Toxic
same,Activity,[15],Non-Toxic
same,Activity,[16],Non-Toxic
same,MTD,[17],600 mg/kg
same,Activity,[18],Active
same,Activity,[19],54.55%
same,Activity,[20],Active
same,Activity,[21],Active
same,Activity,[22],57.35%
same,Activity,[23],84.32%
same,half-life,[24],156 min
same,Vz/F,[25],1.05 L/kg
same,CL/F,[26],21.7 mL/min/kg
same,Cmax,[27],2680 ng/mL
same,bioavailability,[28],21.7%
same,Activity,[29],-5.1%
same,Activity,[30],1.4%
same,Activity,[31],6.7 cm
same,Activity,[32],Dose-Dependent Effect
same,Activity,[33],Dose-Dependent Effect
same,Activity,[34],Dose-Dependent Effect
same,Activity,[35],Dose-Dependent Effect
same,Activity,[36],Dose-Dependent Effect

# Reference: ChEMBL document CHEMBL5390254, “Discovery and Optimization of Novel hDHODH Inhibitors for the Treatment of Inflammatory Bowel Disease” (J Med Chem, 2023)
